Results reported in paper PMC7663597, “Structure–Activity Relationship of Aloperine Derivatives as New Anti–Liver Fibrogenic Agents” (Molecules, 2020).

Legend:
TGF-β1 protein = experiment: Western blot of TGF-β1 protein in LX-2 cells; assay type: cell-based, human; settings: 24 h
Procedure: At the meantime, the addition of TGF-β1 also stimulated the expression of TGF-β1 on protein level, as shown in Figure 3A–C and Supplementary Table S2.
LX-2 cells were cultured as described above. Cells were washed with phosphate-buffered saline (PBS) and were resuspended by radioimmunoprecipitation assay (RIPA) lysis buffer for 30 min in 4 °C; the supernatant was collected after centrifugation at 12000 g for 15 min at 4 °C. Subsequently, equal amounts of protein were quantified with Bradford assay, separated using SDS-PAGE and transferred onto polyvinylidene difluoride membrane. The membranes were blocked with 5% milk in PBST for 1 h, and probed with specific primary antibodies overnight at room temperature. The membrane was washed three times by PBST, and probed with horseradish peroxidase-conjugated secondary antibodies and GAPDH. The proteins were visualized by chemiluminescence reagents. Antibodies used in western blot analysis were obtained from Abcam (Cambridge, UK): anti-collagen 1 (ab34710), anti-TGF beta 1 antibody (ab179695), anti-alpha smooth muscle actin (ab32575) and Cell Signaling Technology (Danvers, MA, USA): GAPDH (D16H11) Rabbit mAb (5174).

[1] = HepG2 cell survival, MTT assay; assay type: cell-based; settings: human, HepG2 cells
Procedure: HepG2 cell survival was measured by MTT assay. HepG2 cells, at density of 6x10^3 cells/well in 96-well culture plates, were incubated with the aloperine derivates at various concentrations until the cells at 50% confluence for 24 h. 20 µL of the MTT (5 mg/mL) solution was added to each plate and incubated with 5% CO2, 37 °C for 4 h. Subsequently, withdrawing the culture supernatant containing MTT, 150 µL DMSO was used for dissolving the formazan crystal. The absorbance was measured using a microplate reader at 570 nm.

[2] = LX-2 cell survival, sulforhodamine B (SRB) assay; assay type: cell-based; settings: human, LX-2 cells
Procedure: LX-2 cell survival was measured by sulforhodamine B (SRB) assay. The cells were seeded in 96-well plates at the density of 2 × 10^4/well and cultured in DMEM/GlutaMAX I medium with 10% fetal bovine serum (FBS) with 5% CO2, 37 °C. The cells were treated by the aloperine derivates for 24 h, washed by PBS for three times. Then the cells were fixed with 10% (wt/vol) trichloroacetic acid for 1 h and stained with SRB for 0.5 h. Subsequently, the protein-bound dye was dissolved in 10 mM Tris base solution after removing excess SRB dye washing repeatedly with 1% (vol/vol) acetic acid, the optical density (OD) was determined at 510 nm with a microplate reader.

in vivo = settings: both sexes, Kunming, mouse, po
Procedure: (§1) To evaluate the safety profiles of the key compounds 4i, 4n and 4p, an acute toxicity test was performed in Kunming mice. Compound 4i was given orally in a single-dosing experiment at 100, 300 and 400 mg kg^−1, while 4n at 300, 400, 500 mg kg^−1, and 4p at 200, 400, 500 mg kg^−1. The mice were closely monitored for 7 days.
(§2) Male and Female Kunming mice with weight of 20.0 ±1.0 g were obtained from the Institute of Laboratory Animal Science (Beijing, China). Animals wer e cared according to the institutional guidelines of the Institute of Medicinal Biotechnology, CAMS&PUMC (IMB-20190610D3), and fed with regular rodent chow and housed in an air conditioned room. The mice were randomly divided into different groups with four male mice and four female mice each. Each compound was given orally in a single-dosing experiment, the dose of 4i was 100, 300 and 400 mg kg^−1, the dose of 4n was 300, 400, 500 mg kg^−1, the dose of 4p was 200, 400, 500 mg kg^−1 (ddH2O as control). The mice were closely monitored for 7 days. Body weight as well as survival was monitored.

Kunming mice = experiment: in vivo; settings: both, mouse, po, 7 days
Procedure: as §1, §2

TGFB1 mRNA = experiment: RT-PCR of TGFB1 mRNA in LX-2 cells; assay type: cell-based, human; settings: TGF-β1 (2 ng/mL) stimulation, 24 h
Procedure: In the absence or presence of TGF-β1 (2 ng/mL) treatment, LX-2 cells were treated with key compounds 4n and 4p at concentrations of 6 μM and 12 μM, or 4i at a concentration of 12 μM, respectively.
Since the stimulation of TGF-β1 provokes the expression of a series of fibrosis genes, for example COL1A1 and TGFB1 [24, 25], the effects of key compounds on TGF-β1 expression were evaluated by RT-PCR and western blot assays. As shown in Figure 2B and Supplementary Table S1, the expression of TGFB1 mRNA was maintained at a low level, and the addition of a key compound seemed to have little effect on its expression.
LX-2 cells were laid on 6-well plate and cultured in DMEM supplemented with 10% fetal bovine serum (FBS) in a 5% CO2 atmosphere at 37 °C. And serum-free culture was required until the cells reached 90−95% confluence. After 24 h, cells were incubated with […] concentrations of aloperine derivatives in the presence of 2 ng/mL of TGF-β1 for 24 h. Total RNA of the LX-2 cells was isolated using TRIzol reagent, purified using NucleoSpin RNA Clean-up. Reverse transcription was performed with Transcriptor first strand cDNA synthesis kit. Subsequently, the cDNA levels was determined by ABI 7500 Fast Real-Time PCR System using TaqMan probes of COL1A1, TGF-β1, α-SMA, and GAPDH (sequence not disclosed by ABI) and FastStart Universal Probe master mix (Roche, Indianapolis, IN, USA).

luciferase = molecular target: T1, luciferase (Photinus pyralis, UniProt P08659, K549A/L550V/N119G/N50D/S548I); experiment: Acute effect on luciferase activity (cell lysate, 2 h); assay type: biochemical; settings: 80 μM, 2-h treatment
T1 construct: expressed in transfected cells; host or cells: human hepatic stellate LX-2 cells transfected with pGL4.17-COL1A1P; lysate used
T1 sequence (P08659 whole entry N50D/N119G/S548I/K549A/L550V): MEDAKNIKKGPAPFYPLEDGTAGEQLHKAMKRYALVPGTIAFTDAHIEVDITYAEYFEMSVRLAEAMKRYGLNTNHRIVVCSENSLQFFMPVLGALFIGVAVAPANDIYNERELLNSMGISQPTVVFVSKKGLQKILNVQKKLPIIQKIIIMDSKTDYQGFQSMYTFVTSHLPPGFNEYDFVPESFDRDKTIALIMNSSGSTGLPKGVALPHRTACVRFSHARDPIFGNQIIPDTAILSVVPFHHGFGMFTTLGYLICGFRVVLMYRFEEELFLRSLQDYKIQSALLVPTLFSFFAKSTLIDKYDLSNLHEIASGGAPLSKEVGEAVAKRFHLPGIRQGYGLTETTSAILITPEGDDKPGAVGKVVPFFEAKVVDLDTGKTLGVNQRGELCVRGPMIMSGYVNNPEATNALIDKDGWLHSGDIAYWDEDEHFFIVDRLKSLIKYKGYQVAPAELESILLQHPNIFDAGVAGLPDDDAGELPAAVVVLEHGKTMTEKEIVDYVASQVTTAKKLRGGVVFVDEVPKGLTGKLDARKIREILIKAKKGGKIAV
Procedure: Then, their anti-COL1A1 potencies were verified by testing the half maximal inhibition concentration (IC50) values upon COL1A1 expression expression in LX-2 cells. […] Then, compounds 4i, 4n and 4p with the lower IC50 values were selected as the key compounds for further studies.
Cells were maintained on Dulbecco’s Modified Eagle’s medium (DMEM), laid on 96-well plate. DMEM medium was supplemented with 10% fetal bovine serum (FBS) at 37 °C humidified atmosphere with 5% CO2. Furthermore, serum-free culture was required until the cells were confluent at 90−95%. 24 h later the cells were treated with a tested compound (40 and 80 μM) for 24 h. The COL1A1 promotor activity was detected by the Bright-Glo luciferase assay system. Alternatively, to test the acute effects of compound on luciferase activity, 24 h later the cells were lysed and the lysate was treated with a tested compound (80 μM) for 2 h, then the luciferase was detected by the Bright-Glo luciferase assay system (Promega, Madison, WI, USA).

Question: With O=C(CN1CCCC2=C[C@H]3C[C@H](CN4CCCC[C@H]34)[C@@H]21)N(c1ccccc1)c1ccc2ccccc2c1 [4n, 12N-(N’-(Naphthalen-2-yl)-N’-phenyl)carbamoylmethyl aloperine] as the compound, how does the “Inhibition rate of TGF-β1 protein expression” value (shortened to “Inhibition rate”) (TGF-β1 protein; with TGF-β1, 6 μM) read?
Answer: Its value is 14.6%.

Question: And the “Inhibition rate” value (TGF-β1 protein; with TGF-β1, 12 μM)?
Answer: The value was 61.0%.

Question: And the CC50 at 24 h [1]?
Answer: The CC50 at 24 h was 35.2 ± 4.1 µM.

Question: What about the CC50 at 24 h [2] of the same compound?
Answer: Its CC50 at 24 h is 17.1 ± 5.4 µM.

Question: What about the LD50 at 7 days (in vivo) of the same compound?
Answer: The LD50 at 7 days was 500 mg/kg.

Question: And the “median lethal dose (LD50)” value (Kunming mice)?
Answer: The value was 500 mg/kg.

Question: What about the “Inhibitory rate of TGFB1 mRNA expression” value (TGFB1 mRNA; 6 μM) of the same compound?
Answer: The value was 57.7%.

Question: What about the “Inhibitory rate of TGFB1 mRNA expression” value (TGFB1 mRNA; 12 μM) of the same compound?
Answer: The value was 60.0%.

Question: What about the “Acute effect on luciferase activity” value (luciferase) of the same compound?
Answer: Its value is “minimal inhibition”.

Question: For O=C(CN1CCCC2=C[C@H]3C[C@H](CN4CCCC[C@H]34)[C@@H]21)N1c2ccccc2Oc2ccccc21 [4p, 12N-N′-Phenoxazinylcarbamoylmethyl aloperine], which “Inhibition rate” value (TGF-β1 protein; with TGF-β1, 6 μM) is on record?
Answer: Its value is 20.8%.

Question: And the “Inhibition rate” value (TGF-β1 protein; with TGF-β1, 12 μM)?
Answer: The value was 135.4%.

Question: What about the CC50 at 24 h [1] of the same compound?
Answer: Its CC50 at 24 h is 43.7 ± 2.7 µM.

Question: What about the CC50 at 24 h [2] of the same compound?
Answer: The CC50 at 24 h was 34.8 ± 2.9 µM.

Question: What about the LD50 at 7 days (in vivo) of the same compound?
Answer: The LD50 at 7 days was 400 mg/kg.

Question: What about the “median lethal dose (LD50)” value (Kunming mice) of the same compound?
Answer: Its value is 400 mg/kg.

Question: What about the “Inhibitory rate of TGFB1 mRNA expression” value (TGFB1 mRNA; 6 μM) of the same compound?
Answer: The value was 60.8%.

Question: And the “Inhibitory rate of TGFB1 mRNA expression” value (TGFB1 mRNA; 12 μM)?
Answer: Its value is 63.8%.

Question: And the “Acute effect on luciferase activity” value (luciferase)?
Answer: Its value is “minimal inhibition”.
